Test: xn = mol fraction of the nth substance listed
Conditions: Gas, Vibrating tube method

S [hydrogen sulfide] + C
Conditions	mass density [kg/m3]
273.16 K, 19608 kPa, x2 = 0.714	336.94
273.16 K, 22152 kPa, x2 = 0.714	354.18
273.16 K, 22483 kPa, x2 = 0.714	356.27
273.17 K, 12519 kPa, x2 = 0.8197	177.81
273.18 K, 22828 kPa, x2 = 0.714	358.14
273.19 K, 21199 kPa, x2 = 0.714	347.78
273.19 K, 24981 kPa, x2 = 0.714	368.95
273.2 K, 20623 kPa, x2 = 0.714	344.02
273.2 K, 23590 kPa, x2 = 0.714	362.19
273.21 K, 209 kPa, x2 = 0.8685	1.7
273.21 K, 648 kPa, x2 = 0.8685	5.39
273.21 K, 21506 kPa, x2 = 0.714	349.84
273.22 K, 26410 kPa, x2 = 0.714	375.25
273.23 K, 20100 kPa, x2 = 0.714	340.42
273.23 K, 25533 kPa, x2 = 0.714	371.48
273.24 K, 1167 kPa, x2 = 0.8685	10
273.24 K, 1761 kPa, x2 = 0.8685	15.44
273.24 K, 27020 kPa, x2 = 0.714	377.85
273.25 K, 2240 kPa, x2 = 0.8685	19.97
273.25 K, 3776 kPa, x2 = 0.8685	35.41
273.25 K, 11361 kPa, x2 = 0.8685	140.37
273.25 K, 24591 kPa, x2 = 0.714	367.01
273.25 K, 26031 kPa, x2 = 0.714	373.67
273.25 K, 30481 kPa, x2 = 0.8685	300.13
273.26 K, 2770 kPa, x2 = 0.8685	25.12
273.26 K, 4666 kPa, x2 = 0.8685	45.13
273.26 K, 5086 kPa, x2 = 0.8685	49.93
273.26 K, 11062 kPa, x2 = 0.8685	135.65
273.26 K, 11726 kPa, x2 = 0.8685	146.08
273.26 K, 12002 kPa, x2 = 0.8685	150.33
273.26 K, 12322 kPa, x2 = 0.8685	155.19
273.26 K, 12637 kPa, x2 = 0.8685	159.86
273.26 K, 13040 kPa, x2 = 0.8685	165.72
273.26 K, 27255 kPa, x2 = 0.8685	285.03
273.26 K, 28276 kPa, x2 = 0.8685	290.05
273.26 K, 29372 kPa, x2 = 0.8685	295.19
273.27 K, 3280 kPa, x2 = 0.8685	30.25
273.27 K, 4207 kPa, x2 = 0.8685	40.03
273.27 K, 4225 kPa, x2 = 0.8685	40.23
273.27 K, 9149 kPa, x2 = 0.8685	105.29
273.27 K, 9851 kPa, x2 = 0.8685	116.33
273.27 K, 13466 kPa, x2 = 0.8685	171.7
273.27 K, 13771 kPa, x2 = 0.8685	175.85
273.27 K, 24569 kPa, x2 = 0.8685	270.52
273.27 K, 25361 kPa, x2 = 0.8685	275.02
273.27 K, 26319 kPa, x2 = 0.8685	280.21
273.28 K, 5512 kPa, x2 = 0.8685	54.98
273.28 K, 5933 kPa, x2 = 0.8685	60.12
273.28 K, 8496 kPa, x2 = 0.8685	95.31
273.28 K, 9596 kPa, x2 = 0.8685	112.28
273.28 K, 10137 kPa, x2 = 0.8685	120.88
273.29 K, 8136 kPa, x2 = 0.8685	89.96
273.29 K, 8809 kPa, x2 = 0.8685	100.05
273.29 K, 10446 kPa, x2 = 0.8685	125.82
273.29 K, 10749 kPa, x2 = 0.8685	130.66
273.29 K, 23690 kPa, x2 = 0.8685	265.29
273.3 K, 6333 kPa, x2 = 0.8685	65.17
273.3 K, 14847 kPa, x2 = 0.8685	189.62
273.31 K, 6712 kPa, x2 = 0.8685	70.1
273.31 K, 7200 kPa, x2 = 0.8685	76.68
273.31 K, 7483 kPa, x2 = 0.8685	80.6
273.31 K, 7817 kPa, x2 = 0.8685	85.33
273.31 K, 15329 kPa, x2 = 0.8685	195.37
273.31 K, 22905 kPa, x2 = 0.8685	260.37
273.32 K, 15811 kPa, x2 = 0.8685	200.85

Reference: the NIST ThermoML archive (doi:10.1016/j.fluid.2016.08.002)
